Assays:
PDGFRβ = target: T1, PDGFRβ (Homo sapiens, UniProt P09619); assay: Competition binding assay, PDGFRβ Kd; conditions: competition binding
T1 construct: made in house
How it was run: (§1)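 First, biotinylated affinity ligands were loaded onto streptavidin magnetic beads and blocked. Kinase, beads and compound were then equilibrated 1 hour at room temperature, washed, and eluted with non-biotinylated ligand. Eluted kinase was measured by qPCR, with Kd fitted from an eleven-point threefold dilution series.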

CSF1R [1] = target: T2, CSF1R (Homo sapiens, UniProt P07333); assay: Competition binding assay, CSF1R Kd; parameters: made in house; conditions: competition binding
T2 sequence (P07333 20-972): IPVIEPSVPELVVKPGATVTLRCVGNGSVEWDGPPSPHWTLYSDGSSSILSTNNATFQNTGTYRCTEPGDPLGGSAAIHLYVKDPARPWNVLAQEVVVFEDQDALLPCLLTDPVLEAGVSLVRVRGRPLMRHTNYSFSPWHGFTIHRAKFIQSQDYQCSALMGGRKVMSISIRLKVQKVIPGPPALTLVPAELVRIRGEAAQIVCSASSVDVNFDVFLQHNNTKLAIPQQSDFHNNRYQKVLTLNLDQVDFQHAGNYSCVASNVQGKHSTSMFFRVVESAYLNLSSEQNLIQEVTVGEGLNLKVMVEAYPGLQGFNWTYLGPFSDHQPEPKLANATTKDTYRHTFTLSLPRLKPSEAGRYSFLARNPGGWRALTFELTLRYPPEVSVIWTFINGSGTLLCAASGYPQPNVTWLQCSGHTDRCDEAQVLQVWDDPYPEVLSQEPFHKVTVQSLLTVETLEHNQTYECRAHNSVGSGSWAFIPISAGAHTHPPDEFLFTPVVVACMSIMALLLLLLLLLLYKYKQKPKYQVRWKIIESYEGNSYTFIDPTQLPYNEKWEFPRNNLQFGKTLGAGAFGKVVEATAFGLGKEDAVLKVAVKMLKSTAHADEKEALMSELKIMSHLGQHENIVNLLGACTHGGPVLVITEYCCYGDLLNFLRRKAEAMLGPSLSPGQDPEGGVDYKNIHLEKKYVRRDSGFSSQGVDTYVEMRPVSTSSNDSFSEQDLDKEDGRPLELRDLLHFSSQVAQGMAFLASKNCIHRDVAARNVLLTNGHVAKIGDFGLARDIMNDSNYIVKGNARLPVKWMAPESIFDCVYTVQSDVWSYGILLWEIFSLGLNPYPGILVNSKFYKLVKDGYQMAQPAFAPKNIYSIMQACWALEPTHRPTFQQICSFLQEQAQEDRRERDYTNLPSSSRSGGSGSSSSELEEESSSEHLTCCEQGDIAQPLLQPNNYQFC
How it was run: as §1

CSF1R [2] = target: T2, CSF1R; assay: HEK293 CSF1R phosphorylation MSD assay; format: cell-based; parameters: expressed in transfected cells; host or cells: HEK293; conditions: HEK293 cells, M-CSF stimulated CSF1R phosphorylation, MSD; read-out: HEK293 pCSF1R M-CSF MSD:IC50
How it was run: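 Ligand-induced CSF1R autophosphorylation was measured by MSD sandwich assay: CSF1R-FKBP from lysates captured via FK506, anti-phosphotyrosine readout. Cells were exposed to compound for 2 h (9-point, half-log, 0.5% DMSO) before 5 min 50 ng/mL M-CSF. Reported IC50 is the mean of duplicate-plate IC50s relative to DMSO control.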

T1 sequence (P09619 33-1106): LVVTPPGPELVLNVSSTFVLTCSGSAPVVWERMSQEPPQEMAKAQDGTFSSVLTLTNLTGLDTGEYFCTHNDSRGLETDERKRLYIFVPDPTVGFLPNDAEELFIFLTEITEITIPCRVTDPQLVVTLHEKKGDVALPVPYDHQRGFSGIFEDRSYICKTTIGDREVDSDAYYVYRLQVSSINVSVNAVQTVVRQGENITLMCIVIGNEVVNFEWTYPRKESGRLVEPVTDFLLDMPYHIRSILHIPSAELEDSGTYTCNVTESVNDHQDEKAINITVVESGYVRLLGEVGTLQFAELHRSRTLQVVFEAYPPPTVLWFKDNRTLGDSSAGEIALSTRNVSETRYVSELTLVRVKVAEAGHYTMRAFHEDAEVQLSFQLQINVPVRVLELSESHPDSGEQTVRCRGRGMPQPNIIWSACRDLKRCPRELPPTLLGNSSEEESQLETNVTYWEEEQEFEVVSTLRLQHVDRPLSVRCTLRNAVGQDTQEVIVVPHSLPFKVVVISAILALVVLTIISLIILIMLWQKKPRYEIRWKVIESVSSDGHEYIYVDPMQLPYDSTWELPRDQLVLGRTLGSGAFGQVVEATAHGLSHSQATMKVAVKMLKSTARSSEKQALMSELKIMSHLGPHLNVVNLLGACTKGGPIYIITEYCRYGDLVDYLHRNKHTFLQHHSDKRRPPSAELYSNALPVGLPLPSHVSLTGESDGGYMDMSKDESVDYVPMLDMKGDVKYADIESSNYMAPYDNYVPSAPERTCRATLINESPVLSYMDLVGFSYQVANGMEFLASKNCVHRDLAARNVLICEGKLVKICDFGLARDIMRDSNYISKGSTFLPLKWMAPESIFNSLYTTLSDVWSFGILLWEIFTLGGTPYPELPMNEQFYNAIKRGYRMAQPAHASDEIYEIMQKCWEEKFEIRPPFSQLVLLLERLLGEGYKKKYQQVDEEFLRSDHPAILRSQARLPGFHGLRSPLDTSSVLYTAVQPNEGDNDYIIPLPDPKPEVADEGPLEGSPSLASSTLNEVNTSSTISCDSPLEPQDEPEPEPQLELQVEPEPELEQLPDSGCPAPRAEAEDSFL

Row | SMILES | Kd (PDGFRβ) [nM] | Kd (CSF1R [1]) [nM] | IC50 (CSF1R [2]) [nM]
1 | OC[C@@H]1CCCC[C@H]1Nc1nc2ccc(Cn3cnc4cc(Br)cnc43)cc2s1 [Example 133, ((1R,2R)-2-((6-((6-bromo-3H-imidazo[4,5-b]pyridin-3-yl)methyl)benzo[d]thiazol-2-yl)amino)cyclohexyl)methanol] | ≤ 50 | 5 to 20 | 50 to 200
2 | OCc1ccc2ncc(Cc3ccc4nc(N[C@@H]5CCCC[C@H]5O)sc4c3)n2n1 [Example 144, (1R,2R)-2-((6-((6-(hydroxymethyl)imidazo[1,2-b]pyridazin-3-yl)methyl)benzo[d]thiazol-2-yl)amino)cyclohexanol] | 50 to 500 | ≤ 5 | 50 to 200
3 | OC[C@H]1CCCC[C@H]1Nc1nc2ccc(Cn3cnc4cc(Br)cnc43)cc2s1 [Example 136, ((1S,2R)-2-((6-((6-bromo-3H-imidazo[4,5-b]pyridin-3-yl)methyl)benzo[d]thiazol-2-yl)amino)cyclohexyl)methanol] | ≤ 50 | 5 to 20 | 50 to 200
4 | N#Cc1cnc2c(c1)ncn2Cc1ccc2nc(N[C@@H]3CCCC[C@H]3CO)sc2c1 [Example 140, 3-((2-(((1R,2R)-2-(hydroxymethyl)cyclohexyl)amino)benzo[d]thiazol-6-yl)methyl)-3H-imidazo[4,5-b]pyridine-6-carbonitrile] | 50 to 500 | 5 to 20 | 200 to 500
5 | O[C@@H]1CCCC[C@H]1Nc1nc2ccc(Cn3cnc4cc(-n5cncn5)cnc43)cc2s1 [Example 145, (1R,2R)-2-((6-((6-(1H-1,2,4-triazol-1-yl)-3H-imidazo[4,5-b]pyridin-3-yl)methyl)benzo[d]thiazol-2-yl)amino)cyclohexanol] | ≤ 50 | ≤ 5 | ≤ 50
6 | N#Cc1cnc2c(c1)ncn2Cc1ccc2nc(N[C@@H]3CCCC[C@H]3O)oc2c1 [Example 124, 3-((2-(((1R,2R)-2-hydroxycyclohexyl)amino)benzo[d]oxazol-6-yl)methyl)-3H-imidazo[4,5-b]pyridine-6-carbonitrile] | ≤ 50 | 5 to 20 | 50 to 200

Second part, the compound after the results:

Row | Kd (PDGFRβ) [nM] | Kd (CSF1R [1]) [nM] | IC50 (CSF1R [2]) [nM] | SMILES
7 | 500 to 2000 | > 50 | > 500 | N#Cc1ccc2c(c1)ncn2Cc1ccc2nc(N[C@@H]3CCCC[C@H]3O)oc2c1 [Example 170, 1-((2-(((1R,2R)-2-hydroxycyclohexyl)amino)benzo[d]oxazol-6-yl)methyl)-1H-benzo[d]imidazole-5-carbonitrile]
8 | 50 to 500 | ≤ 5 | ≤ 50 | OCCOc1ccc2c(c1)ncn2Cc1ccc2nc(N[C@@H]3CCCC[C@H]3O)sc2c1 [Example 172, (1R,2R)-2-((6-((5-(2-hydroxyethoxy)-1H-benzo[d]imidazol-1-yl)methyl)benzo[d]thiazol-2-yl)amino)cyclohexanol]
9 | ≤ 50 | ≤ 5 | ≤ 50 | O[C@@H]1CCCC[C@H]1Nc1nc2ccc(Cc3cnc4ccc(Cl)nn34)cc2s1 [Example 158, (1R,2R)-2-((6-((6-chloroimidazo[1,2-b]pyridazin-3-yl)methyl)benzo[d]thiazol-2-yl)amino)cyclohexanol]
10 | > 2000 | 5 to 20 | > 500 | O[C@@H]1CCCC[C@H]1Nc1nc2c(F)cc(Cn3cnc4cccnc43)c(F)c2s1 [Example 168, (1R,2R)-2-((6-((3H-imidazo[4,5-b]pyridin-3-yl)methyl)-4,7-difluorobenzo[d]thiazol-2-yl)amino)cyclohexanol]
11 | 50 to 500 | ≤ 5 | ≤ 50 | O[C@@H]1CCCC[C@H]1Nc1nc2ccc(Cc3cnc4cc(-n5cccn5)ccn34)cc2s1 [Example 167, (1R,2R)-2-((6-((7-(1H-pyrazol-1-yl)imidazo[1,2-a]pyridin-3-yl)methyl)benzo[d]thiazol-2-yl)amino)cyclohexanol]
12 | ≤ 50 | 5 to 20 | 50 to 200 | O[C@@H]1[C@H](O)CCC[C@H]1Nc1nc2ccc(Cn3cnc4cc(-n5cncn5)cnc43)cc2s1 [Example 234, (1R,2S,3R)-3-((6-((6-(1H-1,2,4-Triazol-1-yl)-3H-imidazo[4,5-b]pyridin-3-yl)methyl)benzo[d]thiazol-2-yl)amino)cyclohexane-1,2-diol]

— patent US9938261B2, “Heterocyclic compounds and methods of use thereof” (AMBIT BIOSCIENCES CORPORATION, priority 2011, dated 2018)
